# Laboratory results taken from US20240299387A1, “HETEROCYCLIC EGFR INHIBITORS FOR USE IN THE TREATMENT OF CANCER” (Blueprint Medicines Corporation, priority 2021, published 2024).
# Read-outs that look alike come from different tables or passages of the source.
# How the values were obtained:
# [1] = target: T1, EGFR L858R T790M in NCI-H1975 cell line (Homo sapiens, UniProt P00533, L858R/T790M); assay: NCI-H1975 pEGFR AlphaLISA assay; format: cell-based; conditions: NCI-H1975 cells (EGFR L858R T790M), p-EGFR (Tyr1068), 4-5 hours incubation; read-out: Ext pEGFR H1975 GMean IC50 (nM) Protocol: @Pharmaron AlphaLISA (Num)
# T1 construct: host or cells: NCI-H1975
# Procedure: The NCI-H1975 cells were seeded at 12.5K/well in 22 μL into 384 well opti plate (PerkinElmer, 6007299) and adhering overnight at 37C/5% CO2. On the next day, the test compounds and DMSO control were added into H1975 cell plate followed by incubation at 37C/5% CO2 for 4-5 hours. […] Then 5 μL of a donor bead mix was added to each well followed by overnight incubation at room temperature in dark. On the next day, the plate was read at a compatible plate reader to obtain pEGFR signal. Percent of pEGFR inhibition was plotted against log concentration of compounds to generate IC50 values.
# EGFR (L858R T790M C797S) = target: T2, EGFR (L858R T790M C797S) (Homo sapiens, UniProt P00533, C797S/L858R/T790M); assay: Biochemical EGFR inhibition assay (Caliper mobility shift), EGFR LRTMCS mutant
# T2 construct: purchased SignalChem E10-122VG
# Procedure: Reactions proceeded until between 10% to 20% total peptides were phosphorylated at room temperature (25° C.) and were terminated with 35 mM 2,2′,2″,2′″-(ethane-1,2-diyldinitrilo)tetraacetic acid (EDTA). Product was detected using the Caliper mobility shift detection method where the phosphorylated peptide (product) and substrate were electrophoretically separated and measured. Percent activity was plotted against log concentration of compound and points to generate an apparent IC50.
# [2] = LRTMCS (PH) IC50 (nM) @ 1 mM ATP (Num)
# T2 sequence (P00533 25-1210 T790M/C797S/L858R): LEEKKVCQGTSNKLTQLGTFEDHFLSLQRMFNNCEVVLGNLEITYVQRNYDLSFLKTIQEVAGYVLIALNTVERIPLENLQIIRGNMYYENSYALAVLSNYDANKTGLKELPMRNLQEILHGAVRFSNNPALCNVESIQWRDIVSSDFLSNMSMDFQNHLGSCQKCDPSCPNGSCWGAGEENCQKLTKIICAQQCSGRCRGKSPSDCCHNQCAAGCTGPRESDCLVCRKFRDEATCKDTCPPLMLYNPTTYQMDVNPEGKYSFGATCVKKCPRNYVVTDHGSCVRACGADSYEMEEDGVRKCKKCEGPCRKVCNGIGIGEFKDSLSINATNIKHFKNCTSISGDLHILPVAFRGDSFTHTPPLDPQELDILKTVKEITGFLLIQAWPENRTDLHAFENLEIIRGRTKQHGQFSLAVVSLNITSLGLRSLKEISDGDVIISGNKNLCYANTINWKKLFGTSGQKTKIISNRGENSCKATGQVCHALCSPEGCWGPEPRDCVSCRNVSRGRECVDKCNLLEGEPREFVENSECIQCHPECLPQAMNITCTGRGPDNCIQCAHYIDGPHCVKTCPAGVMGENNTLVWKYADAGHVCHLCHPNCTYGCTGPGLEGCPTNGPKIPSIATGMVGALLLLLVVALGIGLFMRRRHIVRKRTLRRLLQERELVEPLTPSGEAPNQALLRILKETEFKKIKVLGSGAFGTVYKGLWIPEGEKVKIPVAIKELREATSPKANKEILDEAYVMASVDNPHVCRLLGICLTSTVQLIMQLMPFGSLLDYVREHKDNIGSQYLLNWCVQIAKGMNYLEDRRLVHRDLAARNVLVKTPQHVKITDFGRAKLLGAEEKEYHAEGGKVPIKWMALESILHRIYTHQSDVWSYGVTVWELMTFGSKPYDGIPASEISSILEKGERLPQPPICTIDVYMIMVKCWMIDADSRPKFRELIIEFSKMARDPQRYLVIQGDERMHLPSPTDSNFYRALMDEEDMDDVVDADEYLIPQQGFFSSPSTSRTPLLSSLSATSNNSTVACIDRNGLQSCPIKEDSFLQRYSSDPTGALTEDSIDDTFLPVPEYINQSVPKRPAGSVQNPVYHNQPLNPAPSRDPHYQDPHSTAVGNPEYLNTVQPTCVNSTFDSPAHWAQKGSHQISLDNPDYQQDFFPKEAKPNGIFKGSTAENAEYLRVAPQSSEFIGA
# T1 sequence (P00533 25-1210 T790M/L858R): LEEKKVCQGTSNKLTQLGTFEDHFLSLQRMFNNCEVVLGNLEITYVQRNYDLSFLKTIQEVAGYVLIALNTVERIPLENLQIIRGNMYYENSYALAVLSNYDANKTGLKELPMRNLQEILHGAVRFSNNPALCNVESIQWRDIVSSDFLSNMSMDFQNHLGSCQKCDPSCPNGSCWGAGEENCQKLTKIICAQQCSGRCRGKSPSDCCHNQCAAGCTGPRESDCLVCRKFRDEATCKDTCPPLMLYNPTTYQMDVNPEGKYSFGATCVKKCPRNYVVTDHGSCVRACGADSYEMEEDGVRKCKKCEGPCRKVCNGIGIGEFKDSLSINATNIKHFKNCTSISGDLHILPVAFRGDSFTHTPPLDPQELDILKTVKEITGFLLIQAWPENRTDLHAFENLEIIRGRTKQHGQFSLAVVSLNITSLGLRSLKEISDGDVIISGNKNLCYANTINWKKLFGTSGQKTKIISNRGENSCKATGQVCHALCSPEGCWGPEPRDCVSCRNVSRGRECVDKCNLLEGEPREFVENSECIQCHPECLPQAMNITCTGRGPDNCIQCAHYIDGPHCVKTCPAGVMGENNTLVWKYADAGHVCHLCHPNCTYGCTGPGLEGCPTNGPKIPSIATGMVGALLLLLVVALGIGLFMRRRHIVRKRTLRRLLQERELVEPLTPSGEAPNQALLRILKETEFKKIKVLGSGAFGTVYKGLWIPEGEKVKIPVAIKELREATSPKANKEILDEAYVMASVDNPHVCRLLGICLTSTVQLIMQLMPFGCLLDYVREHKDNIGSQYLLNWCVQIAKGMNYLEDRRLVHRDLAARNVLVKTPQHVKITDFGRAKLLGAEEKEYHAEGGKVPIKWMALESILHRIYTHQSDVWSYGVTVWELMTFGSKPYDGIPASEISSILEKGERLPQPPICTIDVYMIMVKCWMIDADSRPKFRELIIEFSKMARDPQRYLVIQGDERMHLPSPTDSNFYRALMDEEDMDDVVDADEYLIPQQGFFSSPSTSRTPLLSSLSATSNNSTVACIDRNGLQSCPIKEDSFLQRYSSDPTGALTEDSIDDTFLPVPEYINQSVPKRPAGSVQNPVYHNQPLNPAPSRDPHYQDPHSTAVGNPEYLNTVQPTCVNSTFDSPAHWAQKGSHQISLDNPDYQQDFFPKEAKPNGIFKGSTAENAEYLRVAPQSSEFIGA
Structure (SMILES),IC50 [1] [nM],IC50 (EGFR (L858R T790M C797S); [2]) [nM],IC50 (EGFR (L858R T790M C797S); read-out: LRTMCS (PH) IC50 (nM) @ 1 mM ATP (Num)) [nM]
"Cc1noc(C)c1CCOc1ccc(C(C)C)c2cc(Nc3ccnc(N4CC[C@@H](OCCO)[C@@H](F)C4)n3)ncc12 [Example 43, 2-(((3S,4R)-1-(4-((8-(2-(3,5-dimethylisoxazol-4-yl)ethoxy)-5-isopropylisoquinolin-3-yl)amino)pyrimidin-2-yl)-3-fluoropiperidin-4-yl)oxy)ethan-1-ol]",> 50,15 to 20,
"CC(C)c1ccc(OCCN2CCOCC2)c2cnc(Nc3ccnc(N4CC[C@](C)(O)[C@H](F)C4)n3)cc12 [Example 31, (3R,4S)-3-fluoro-1-(4-((5-isopropyl-8-(2-morpholinoethoxy)isoquinolin-3-yl)amino)pyrimidin-2-yl)-4-methylpiperidin-4-ol]",> 50,< 15,
"CC(C)c1ccc(OC[C@H]2CCC(=O)N2C)c2cnc(Nc3ccnc(N4CCC(C)(O)CC4)n3)cc12 (single isomer, unassigned) [Example 19, (R)-5-(((3-((2-(4-hydroxy-4-methylpiperidin-1-yl)pyrimidin-4-yl)amino)-5-isopropylisoquinolin-8-yl)oxy)methyl)-1-methylpyrrolidin-2-one or (S)-5-(((3-((2-(4-hydroxy-4-methylpiperidin-1-yl)pyrimidin-4-yl)amino)-5-isopropylisoquinolin-8-yl)oxy)methyl)-1-methylpyrrolidin-2-one]",10 to 20,< 15,
"CO[C@@H]1CCN(c2nccc(Nc3cc4c(C(C)C)ccc(NCC5CNC[C@@H]5S(C)(=O)=O)c4cn3)n2)C[C@@H]1F (single isomer, unassigned) [Example 1, N3-(2-((3S,4R)-3-fluoro-4-methoxypiperidin-1-yl)pyrimidin-4-yl)-5-isopropyl-N8-(((4R)-4-(methylsulfonyl)pyrrolidin-3-yl)methyl)isoquinoline-3,8-diamine or N3-(2-((3S,4R)-3-fluoro-4-methoxypiperidin-1-yl)pyrimidin-4-yl)-5-isopropyl-N8-(((4S)-4-(methylsulfonyl)pyrrolidin-3-yl)methyl)isoquinoline-3,8-diamine]",30 to 50,< 15,
"CC(=O)N1CC(COc2ccc(C(C)C)c3cc(Nc4ccnc(N5CCC(C)(O)CC5)n4)ncc23)C1 [Example 14, 1-(3-(((3-((2-(4-hydroxy-4-methylpiperidin-1-yl)pyrimidin-4-yl)amino)-5-isopropylisoquinolin-8-yl)oxy)methyl)azetidin-1-yl)ethanone]",> 50,20 to 30,
"CO[C@@H]1CCN(c2nccc(Nc3cc4c(C(C)C)ncc(OCCn5cnnc5)c4cn3)n2)C[C@@H]1F [Example 55, 8-(2-(4H-1,2,4-triazol-4-yl)ethoxy)-N-(2-((3S,4R)-3-fluoro-4-methoxypiperidin-1-yl)pyrimidin-4-yl)-5-isopropyl-2,6-naphthyridin-3-amine]",> 50,15 to 20,
"[2H]C([2H])([2H])O[C@H]1CCN(c2nccc(Nc3cc4c(C(C)C)ccc(OC[C@H]5CCC(=O)N5C)c4cn3)n2)C[C@H]1F [Example 46, (R)-5-(((3-((2-((3R,4S)-3-fluoro-4-(methoxy-d3)piperidin-1-yl)pyrimidin-4-yl)amino)-5-isopropylisoquinolin-8-yl)oxy)methyl)-1-methylpyrrolidin-2-one]",> 50,15 to 20,
"CC(C)c1ccc(OCCn2cncn2)c2cnc(Nc3ccnc(N4CC[C@](C)(O)[C@H](F)C4)n3)cc12 [Example 39, (3R,4S)-1-(4-((8-(2-(1H-1,2,4-triazol-1-yl)ethoxy)-5-isopropylisoquinolin-3-yl)amino)pyrimidin-2-yl)-3-fluoro-4-methylpiperidin-4-ol]",> 50,15 to 20,
"CC(C)c1cnc(C(=O)NCCN(C)C)c2cnc(Nc3ccnc(N4CC[C@@H](O)[C@@](C)(F)C4)n3)cc12 [Example 77, N-(2-(dimethylamino)ethyl)-6-((2-((3S,4R)-3-fluoro-4-hydroxy-3-methylpiperidin-1-yl)pyrimidin-4-yl)amino)-4-isopropyl-2,7-naphthyridine-1-carboxamide]",30 to 50,< 15,
"CC(C)c1ccc(OCCn2ccnc2)c2cnc(Nc3ccnc(N4CC[C@@](C)(O)[C@@H](F)C4)n3)cc12 [Example 12, (3S,4R)-1-(4-((8-(2-(1H-imidazol-1-yl)ethoxy)-5-isopropylisoquinolin-3-yl)amino)pyrimidin-2-yl)-3-fluoro-4-methylpiperidin-4-ol]",> 50,< 15,
"CC(C)c1ccc(OCc2cn(C)nn2)c2cnc(Nc3ccnc(N4CC[C@@H](O)[C@@](C)(F)C4)n3)cc12 [Example 10, (3S,4R)-3-fluoro-1-(4-((5-isopropyl-8-((1-methyl-1H-1,2,3-triazol-4-yl)methoxy)isoquinolin-3-yl)amino)pyrimidin-2-yl)-3-methylpiperidin-4-ol]",30 to 50,< 15,
"CC(C)c1cnc(C(=O)N[C@H]2CN(C)C[C@H]2F)c2cnc(Nc3ccnc(N4CC[C@@H](O)[C@@](C)(F)C4)n3)cc12 (single isomer, unassigned) [Example 88]",10 to 20,,< 15
"CCNC(=O)c1ncc(C(C)C)c2cc(Nc3ccnc(N4CC[C@@H](O)[C@@](C)(F)C4)n3)ncc12 [Example 65, N-ethyl-6-((2-((3S,4R)-3-fluoro-4-hydroxy-3-methylpiperidin-1-yl)pyrimidin-4-yl)amino)-4-isopropyl-2,7-naphthyridine-1-carboxamide]",> 50,15 to 20,
"CO[C@H]1C[C@@H](NC(=O)c2ncc(C(C)C)c3cc(Nc4ccnc(N5CC[C@@H](O)[C@@](C)(F)C5)n4)ncc23)C1 [Example 73, 6-((2-((3S,4R)-3-fluoro-4-hydroxy-3-methylpiperidin-1-yl)pyrimidin-4-yl)amino)-4-isopropyl-N-((1s,3s)-3-methoxycyclobutyl)-2,7-naphthyridine-1-carboxamide]",20 to 30,< 15,
"CO[C@H]1CCN(c2nccc(Nc3cc4c(C(C)C)ccc(OCC5CN(C(C)=O)C5)c4cn3)n2)C[C@@H]1O (single isomer, unassigned) [Example 57, 1-(3-(((3-((2-((3S,4S)-3-hydroxy-4-methoxypiperidin-1-yl)pyrimidin-4-yl)amino)-5-isopropylisoquinolin-8-yl)oxy)methyl)azetidin-1-yl)ethan-1-one or 1-(3-(((3-((2-((3R,4R)-3-hydroxy-4-methoxypiperidin-1-yl)pyrimidin-4-yl)amino)-5-isopropylisoquinolin-8-yl)oxy)methyl)azetidin-1-yl)ethan-1-one]",> 50,15 to 20,
"COCCNC(=O)c1ncc(C(C)C)c2cc(Nc3ccnc(N4CC[C@@H](O)[C@@](C)(F)C4)n3)ncc12 [Example 66, 6-((2-((3S,4R)-3-fluoro-4-hydroxy-3-methylpiperidin-1-yl)pyrimidin-4-yl)amino)-4-isopropyl-N-(2-methoxyethyl)-2,7-naphthyridine-1-carboxamide]",> 50,20 to 30,
"CC(C)c1cnc(C(=O)NC2CCOCC2)c2cnc(Nc3ccnc(N4CC[C@@H](O)[C@@](C)(F)C4)n3)cc12 [Example 78, 6-((2-((3S,4R)-3-fluoro-4-hydroxy-3-methylpiperidin-1-yl)pyrimidin-4-yl)amino)-4-isopropyl-N-(tetrahydro-2H-pyran-4-yl)-2,7-naphthyridine-1-carboxamide]",30 to 50,15 to 20,
"CC(C)c1cnc(C(=O)NC2COC2)c2cnc(Nc3ccnc(N4CC[C@@H](O)[C@@](C)(F)C4)n3)cc12 [Example 60, 6-((2-((3S,4R)-3-fluoro-4-hydroxy-3-methylpiperidin-1-yl)pyrimidin-4-yl)amino)-4-isopropyl-N-(oxetan-3-yl)-2,7-naphthyridine-1-carboxamide]",30 to 50,15 to 20,
"CC(=O)N1CC(COc2ccc(C(C)C)c3cc(Nc4ccnc(N5CC[C@@](C)(O)[C@@H](F)C5)n4)ncc23)C1 [Example 11, 1-(3-(((3-((2-((3S,4R)-3-fluoro-4-hydroxy-4-methylpiperidin-1-yl)pyrimidin-4-yl)amino)-5-isopropylisoquinolin-8-yl)oxy)methyl)azetidin-1-yl)ethanone]",> 50,20 to 30,
"CC(=O)N1CC(COc2cccc3cc(Nc4ccnc(N5C[C@@H](F)[C@@H](O)C(C)(C)C5)n4)ncc23)C1 (single isomer, unassigned) [Example 42, 1-(3-(((3-((2-((4S,5R)-5-fluoro-4-hydroxy-3,3-dimethylpiperidin-1-yl)pyrimidin-4-yl)amino)isoquinolin-8-yl)oxy)methyl)azetidin-1-yl)ethenone or 1-(3-(((3-((2-((4R,5S)-5-fluoro-4-hydroxy-3,3-dimethylpiperidin-1-yl)pyrimidin-4-yl)amino)isoquinolin-8-yl)oxy)methyl)azetidin-1-yl)ethenone]",> 50,20 to 30,
